According to patent US20220089575A1, “FARNESOID X RECEPTOR AGONISTS AND USES THEREOF” (Metacrine, Inc., priority 2017, published 2022):

Target: T1, hFXR (Homo sapiens, UniProt Q96RI1)
T1 construct: expressed in transfected cells; host or cells: CV-1 cells
T1 sequence (Q96RI1 1-486): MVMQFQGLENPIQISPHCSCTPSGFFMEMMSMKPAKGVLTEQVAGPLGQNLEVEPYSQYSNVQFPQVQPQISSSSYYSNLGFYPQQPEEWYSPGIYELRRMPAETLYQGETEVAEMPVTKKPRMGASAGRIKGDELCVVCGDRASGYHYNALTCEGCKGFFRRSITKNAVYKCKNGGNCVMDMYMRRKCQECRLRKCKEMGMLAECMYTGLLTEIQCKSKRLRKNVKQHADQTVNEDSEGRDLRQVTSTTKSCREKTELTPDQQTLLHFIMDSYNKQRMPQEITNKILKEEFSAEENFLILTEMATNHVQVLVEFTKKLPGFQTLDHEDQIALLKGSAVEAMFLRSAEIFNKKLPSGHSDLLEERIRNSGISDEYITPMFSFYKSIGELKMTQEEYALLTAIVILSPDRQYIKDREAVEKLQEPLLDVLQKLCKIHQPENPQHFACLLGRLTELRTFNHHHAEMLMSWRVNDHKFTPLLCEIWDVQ
T1 sequence (P19793 1-462 partner): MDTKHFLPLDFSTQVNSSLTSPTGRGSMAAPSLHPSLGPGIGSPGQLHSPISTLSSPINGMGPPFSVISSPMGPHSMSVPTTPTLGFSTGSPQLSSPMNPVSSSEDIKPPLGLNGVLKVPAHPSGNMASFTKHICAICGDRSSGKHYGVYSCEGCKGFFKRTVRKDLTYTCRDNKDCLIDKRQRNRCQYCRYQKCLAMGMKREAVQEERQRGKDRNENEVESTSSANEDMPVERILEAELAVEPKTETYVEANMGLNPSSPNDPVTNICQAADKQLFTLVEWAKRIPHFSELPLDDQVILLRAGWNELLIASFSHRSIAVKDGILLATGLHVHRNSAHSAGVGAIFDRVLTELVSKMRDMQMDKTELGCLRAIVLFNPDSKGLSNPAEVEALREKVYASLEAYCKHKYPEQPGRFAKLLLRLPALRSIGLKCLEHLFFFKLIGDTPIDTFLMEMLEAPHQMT
Test: In Vitro FXR Assay (TK): TK-ECRE-luc reporter in transfected CV-1 cells
Type: cell-based
Conditions: 18 hrs, luminescence, maximum efficacy of <25% of the Fexarmine control classified as '+'
Outline: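 Cells are seeded in charcoal double-stripped FBS medium, transfected overnight with FXR/RXR expression and ECRE-driven luciferase reporter plasmids, then treated with serially diluted compounds for 18 h. Lysates are measured for luciferase light output.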

SMILES	EC50
COc1ccc([C@H]2CC[C@H](CN(c3cc(-c4coc(C5CC5)n4)ccn3)C(=O)[C@H]3CC[C@H](OC(=O)N[C@@H](C)CO)CC3)CC2)nc1C [Compound 6.93, trans-4-((4-(2-Cyclopropyloxazol-4-yl)pyridin-2-yl)((trans-4-(5-methoxy-6-methylpyridin-2-yl)cyclohexyl)methyl)carbamoyl)cyclohexyl ((S)-1-hydroxypropan-2-yl)carbamate]	≤ 250 nM
COc1ccc([C@H]2CC[C@H](CN(c3cc(-c4coc(C5CC5)n4)ccn3)C(=O)[C@H]3CC[C@H](OC(=O)N[C@H](C)CO)CC3)CC2)nc1C [Compound 6.94, trans-4-((4-(2-Cyclopropyloxazol-4-yl)pyridin-2-yl)((trans-4-(5-methoxy-6-methylpyridin-2-yl)cyclohexyl)methyl)carbamoyl)cyclohexyl ((R)-1-hydroxypropan-2-yl)carbamate]	≤ 250 nM
COc1ccc([C@H]2CC[C@H](CN(c3cc(-c4coc(C5CC5)n4)ccn3)C(=O)[C@H]3CC[C@H](OC(=O)NC[C@@H](C)O)CC3)CC2)nc1C [Compound 6.95, trans-4-((4-(2-Cyclopropyloxazol-4-yl)pyridin-2-yl)((trans-4-(5-methoxy-6-methylpyridin-2-yl)cyclohexyl)methyl)carbamoyl)cyclohexyl ((R)-2-hydroxypropyl)carbamate]	≤ 250 nM
COc1ccc([C@H]2CC[C@H](CN(c3cc(-c4coc(C5CC5)n4)ccn3)C(=O)[C@H]3CC[C@H](OC(=O)NC[C@H](C)O)CC3)CC2)nc1C [Compound 6.96, trans-4-((4-(2-Cyclopropyloxazol-4-yl)pyridin-2-yl)((trans-4-(5-methoxy-6-methylpyridin-2-yl)cyclohexyl)methyl)carbamoyl)cyclohexyl ((S)-2-hydroxypropyl)carbamate]	≤ 250 nM
COc1ccc([C@H]2CC[C@H](CN(c3cc(-c4coc(C5CC5)n4)ccn3)C(=O)[C@H]3CC[C@H](OC(=O)N4CC(O)C4)CC3)CC2)nc1C [Compound 7, trans-4-((4-(2-Cyclopropyloxazol-4-yl)pyridine-2-yl)((trans-4-(5-methoxy-6-methylpyridin-2-yl)cyclohexyl)methyl)carbamoyl)cyclohexyl 3-hydroxyazetidine-1-carboxylate]	≤ 250 nM
CN(C)c1ccc([C@H]2CC[C@H](CN(c3cccc(-c4cnc(C5CC5)s4)c3)C(=O)[C@H]3CC[C@H](OC(=O)N4CC(O)C4)CC3)CC2)cn1 [Compound 7.01, trans-4-((3-(2-Cyclopropylthiazol-5-yl)phenyl)((trans-4-(6-(dimethylamino)pyridin-3-yl)cyclohexyl)methyl)carbamoyl)cyclohexyl 3-hydroxyazetidine-1-carboxylate]	≤ 250 nM
COc1ccc([C@H]2CC[C@H](CN(c3cccc(-c4cnc(C5CC5)s4)c3)C(=O)[C@H]3CC[C@H](OC(=O)N4CC(O)C4)CC3)CC2)cc1C [Compound 7.02, trans-4-((3-(2-Cyclopropylthiazol-5-yl)phenyl)((trans-4-(4-methoxy-3-methylphenyl)cyclohexyl)methyl)carbamoyl)cyclohexyl 3-hydroxyazetidine-1-carboxylate]	≤ 250 nM
COc1ccc([C@H]2CC[C@H](CN(c3cc(-c4cnc(C5CC5)s4)ccn3)C(=O)[C@H]3CC[C@H](OC(=O)N4CC(O)C4)CC3)CC2)cc1C [Compound 7.03, trans-4-((4-(2-Cyclopropylthiazol-5-yl)pyridin-2-yl)((trans-4-(4-methoxy-3-methylphenyl)cyclohexyl)methyl)carbamoyl)cyclohexyl 3-hydroxyazetidine-1-carboxylate]	≤ 250 nM
COc1ccc([C@H]2CC[C@H](CN(c3cc(-c4cnc(C(C)C)s4)ccn3)C(=O)[C@H]3CC[C@H](OC(=O)N4CC(O)C4)CC3)CC2)cc1C [Compound 7.04, trans-4-((4-(2-Isopropylthiazol-5-yl)pyridin-2-yl)((trans-4-(4-methoxy-3-methylphenyl)cyclohexyl)methyl)carbamoyl)cyclohexyl 3-hydroxyazetidine-1-carboxylate]	≤ 250 nM

Further lines, results first:

EC50	SMILES
≤ 250 nM	COc1ccc([C@H]2CC[C@H](CN(c3cc(-c4coc(C5CC5)n4)ccn3)C(=O)[C@H]3CC[C@H](OC(=O)N(C)CC(C)(C)O)CC3)CC2)nc1C [Compound 6.86, trans-4-((4-(2-Cyclopropyloxazol-4-yl)pyridin-2-yl)((trans-4-(5-methoxy-6-methylpyridin-2-yl)cyclohexyl)methyl)carbamoyl)cyclohexyl (2-hydroxy-2-methylpropyl)(methyl)carbamate]
≤ 250 nM	COc1ccc([C@H]2CC[C@H](CN(c3cc(-c4coc(C5CC5)n4)ccn3)C(=O)[C@H]3CC[C@H](OC(=O)N(C)CCO)CC3)CC2)nc1C [Compound 6.87, trans-4-((4-(2-Cyclopropyloxazol-4-yl)pyridin-2-yl)((trans-4-(5-methoxy-6-methylpyridin-2-yl)cyclohexyl)methyl)carbamoyl)cyclohexyl (2-hydroxyethyl)(methyl)carbamate]
≤ 250 nM	CCC(O)C(C)NC(=O)O[C@H]1CC[C@H](C(=O)N(C[C@H]2CC[C@H](c3ccc(OC)c(C)n3)CC2)c2cc(-c3coc(C4CC4)n3)ccn2)CC1 (stereo partly drawn) [Compound 6.88, trans-4-((4-(2-Cyclopropyloxazol-4-yl)pyridin-2-yl)((trans-4-(5-methoxy-6-methylpyridin-2-yl)cyclohexyl)methyl)carbamoyl)cyclohexyl (3-hydroxypentan-2-yl)carbamate]
≤ 250 nM	COc1ccc([C@H]2CC[C@H](CN(c3cc(-c4coc(C5CC5)n4)ccn3)C(=O)[C@H]3CC[C@H](OC(=O)NCC(O)C(C)C)CC3)CC2)nc1C (stereo partly drawn) [Compound 6.89, trans-4-((4-(2-Cyclopropyloxazol-4-yl)pyridin-2-yl)((trans-4-(5-methoxy-6-methylpyridin-2-yl)cyclohexyl)methyl)carbamoyl)cyclohexyl (2-hydroxy-3-methylbutyl)carbamate]
≤ 250 nM	COc1ccc([C@H]2CC[C@H](CN(c3cc(-c4coc(C5CC5)n4)ccn3)C(=O)[C@H]3CC[C@H](OC(=O)NC(C)(C)CO)CC3)CC2)nc1C [Compound 6.90, trans-4-((4-(2-Cyclopropyloxazol-4-yl)pyridin-2-yl)((trans-4-(5-methoxy-6-methylpyridin-2-yl)cyclohexyl)methyl)carbamoyl)cyclohexyl (1-hydroxy-2-methylpropan-2-yl)carbamate]
≤ 250 nM	COc1ccc([C@H]2CC[C@H](CN(c3cc(-c4coc(C(C)C)n4)ccn3)C(=O)[C@H]3CC[C@H](OC(=O)NCC(C)(C)O)CC3)CC2)nc1C [Compound 6.91, trans-4-((4-(2-Isopropyloxazol-4-yl)pyridin-2-yl)((trans-4-(5-methoxy-6-methylpyridin-2-yl)cyclohexyl)methyl)carbamoyl)cyclohexyl (2-hydroxy-2-methylpropyl)carbamate]
≤ 250 nM	COc1ccc([C@H]2CC[C@H](CN(c3cc(-c4cnn(C(C)C)c4)ccn3)C(=O)[C@H]3CC[C@H](OC(=O)NCC(C)(C)O)CC3)CC2)nc1C [Compound 6.92, trans-4-((4-(1-Isopropyl-1H-pyrazol-4-yl)pyridin-2-yl)((trans-4-(5-methoxy-6-methylpyridin-2-yl)cyclohexyl)methyl)carbamoyl)cyclohexyl (2-hydroxy-2-methylpropyl)carbamate]
